# Reference: PubChem BioAssay AID330 (DTP/NCI, 2004)
# Where “and” joins values, the source holds several entries; their conditions need not be identical. Equal entries are not always repeated. Inconclusive results and toxic doses are left out. Square brackets hold non-standard residues; d marks the D form. Peptide text beside a SMILES is read from it. ξ: configuration not given here. ξPhe(4-N(CH2CH2Cl)2) = NC(Cc1ccc(N(CCCl)CCCl)cc1)C(=O)O
# Tested on: P388 leukemia ip, CD2F1 mice, survival T/C
# Assay: NCI In Vivo Anticancer Drug Screen. Data for tumor model P388 Leukemia (intraperitoneal) in CD2F1 (CDF1) mice
# Conditions: endpoint: median survival time, higher = longer survival
# Summary of the method: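 Mice carrying the transplanted tumor received test compound or vehicle. Survival was recorded in each group, and the value is the treated-group measurement divided by that of the vehicle-treated control group.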
# [1] = dose: 60.0 mg/kg/injection, schedule: Q01DX005 (ip), vehicle: saline
# [2] = dose: 120.0 mg/kg/injection, schedule: Q01DX005 (ip), vehicle: saline
# [3] = dose: 240.0 mg/kg/injection, schedule: Q01DX005 (ip), vehicle: saline
# [4] = dose: 50.0 mg/kg/injection, schedule: Q01DX005 (ip), vehicle: saline with Tween-80
# [5] = dose: 100.0 mg/kg/injection, schedule: Q01DX005 (ip), vehicle: saline with Tween-80
# [6] = dose: 200.0 mg/kg/injection, schedule: Q01DX005 (ip), vehicle: saline with Tween-80
# [7] = dose: 25.0 mg/kg/injection, schedule: Q01DX009 (ip), vehicle: saline with Tween-80
# [8] = dose: 50.0 mg/kg/injection, schedule: Q01DX009 (ip), vehicle: saline with Tween-80
# [9] = dose: 100.0 mg/kg/injection, schedule: Q01DX009 (ip), vehicle: saline with Tween-80
# [10] = dose: 200.0 mg/kg/injection, schedule: Q01DX009 (ip), vehicle: saline with Tween-80
# [11] = dose: 50.0 mg/kg/injection, schedule: Q01DX005 (ip), vehicle: Klucel (hydroxypropylcellulose) (HPC)
# [12] = dose: 100.0 mg/kg/injection, schedule: Q01DX005 (ip), vehicle: Klucel (hydroxypropylcellulose) (HPC)
# [13] = dose: 200.0 mg/kg/injection, schedule: Q01DX005 (ip), vehicle: Klucel (hydroxypropylcellulose) (HPC)
# [14] = dose: 60.0 mg/kg/injection, schedule: Q01DX005 (ip), vehicle: saline with Tween-80
# [15] = dose: 120.0 mg/kg/injection, schedule: Q01DX005 (ip), vehicle: saline with Tween-80
# [16] = dose: 240.0 mg/kg/injection, schedule: Q01DX005 (ip), vehicle: saline with Tween-80
# [17] = dose: 60.0 mg/kg/injection, schedule: Q01DX005 (ip), vehicle: Klucel (hydroxypropylcellulose) (HPC)
# [18] = dose: 120.0 mg/kg/injection, schedule: Q01DX005 (ip), vehicle: Klucel (hydroxypropylcellulose) (HPC)
# [19] = dose: 240.0 mg/kg/injection, schedule: Q01DX005 (ip), vehicle: Klucel (hydroxypropylcellulose) (HPC)
# [20] = dose: 25.0 mg/kg/injection, schedule: Q01DX005 (ip), vehicle: Klucel (hydroxypropylcellulose) (HPC)
structure (smiles),measurement,setting,value
CC1(C)OC(COCCO)C(COCCO)O1 (stereo not drawn),T/C,"dose: 100.0 mg/kg/injection, schedule: Q01DX001 (ip), vehicle: saline",92 % of control
same,T/C,"dose: 200.0 mg/kg/injection, schedule: Q01DX001 (ip), vehicle: saline",91 % of control
same,T/C,"dose: 400.0 mg/kg/injection, schedule: Q01DX001 (ip), vehicle: saline",92 % of control
COC(=O)c1cc(-c2ccccn2)[nH]c(=O)c1C#N,T/C,[1],104 % of control
same,T/C,[2],100 % of control
same,T/C,[3],97 % of control
COc1cc2cc(-c3ccc4c(c3)OCO4)[n+](C)cc2cc1OC,T/C,"dose: 6.25 mg/kg/injection, schedule: Q01DX001 (ip), vehicle: Klucel (hydroxypropylcellulose) (HPC)",100 % of control
same,T/C,"dose: 12.5 mg/kg/injection, schedule: Q01DX001 (ip), vehicle: Klucel (hydroxypropylcellulose) (HPC)",107 % of control
same,T/C,"dose: 25.0 mg/kg/injection, schedule: Q01DX001 (ip), vehicle: Klucel (hydroxypropylcellulose) (HPC)",110 % of control
same,T/C,"dose: 50.0 mg/kg/injection, schedule: Q01DX001 (ip), vehicle: Klucel (hydroxypropylcellulose) (HPC)",96 % of control
COC(=O)/C=C\C1(CC(C)C)N=C(c2ccccc2)OC1=O (stereo not drawn),T/C,[4],104 % of control
same,T/C,[5],95 % of control
same,T/C,[6],104 % of control
CC(C)CC(NC(=O)CCl)C(=O)O (stereo not drawn),T/C,[7],108 % of control
same,T/C,[8],108 % of control and 110 % of control
same,T/C,[9],106 % of control and 113 % of control
same,T/C,[10],96 % of control
same,T/C,"dose: 400.0 mg/kg/injection, schedule: Q01DX009 (ip), vehicle: saline with Tween-80",108 % of control
CC12CCC3C4CCC(=O)C(O)=C4CCC3C1CCC2OC(=O)CCC1CCCC1 (stereo not drawn),T/C,"dose: 50.0 mg/kg/injection, schedule: Q04DX003 (sc), vehicle: Klucel (hydroxypropylcellulose) (HPC)",99 % of control
same,T/C,"dose: 100.0 mg/kg/injection, schedule: Q04DX003 (sc), vehicle: Klucel (hydroxypropylcellulose) (HPC)",118 % of control
same,T/C,"dose: 200.0 mg/kg/injection, schedule: Q04DX003 (sc), vehicle: Klucel (hydroxypropylcellulose) (HPC)",101 % of control
COc1cc(C(=O)NN=C(C)C)cc(OC)c1OC,T/C,[11],101 % of control
same,T/C,[12],104 % of control
same,T/C,[13],101 % of control
CCN(CC)CCN1C(=O)c2cccc3c(N)c(OC)cc(c23)C1=O,T/C,"dose: 25.0 mg/kg/injection, schedule: Q01DX005 (ip), vehicle: saline",103 % of control
same,T/C,"dose: 50.0 mg/kg/injection, schedule: Q01DX005 (ip), vehicle: saline",100 % of control and 97 % of control
same,T/C,"dose: 100.0 mg/kg/injection, schedule: Q01DX005 (ip), vehicle: saline",100 % of control and 104 % of control
O=C(O)c1ccccc1SCCO,T/C,"dose: 25.0 mg/kg/injection, schedule: Q01DX009 (ip), vehicle: Klucel (hydroxypropylcellulose) (HPC)",89 % of control
same,T/C,"dose: 50.0 mg/kg/injection, schedule: Q01DX009 (ip), vehicle: Klucel (hydroxypropylcellulose) (HPC)",91 % of control
same,T/C,"dose: 200.0 mg/kg/injection, schedule: Q01DX009 (ip), vehicle: Klucel (hydroxypropylcellulose) (HPC)",90 % of control
CCOC(=O)C(Cc1ccc(N(CCCl)CCCl)cc1)NC(=O)C(Cc1ccccc1)NC(=O)C(NC(=O)CNC(=O)C1CCCN1)C(C)C (stereo not drawn) (H-PGVF[ξPhe(4-N(CH2CH2Cl)2)]-OEt; configuration not given here),T/C,"dose: 10.0 mg/kg/injection, schedule: Q04DX003 (ip), vehicle: water",150 % of control
same,T/C,"dose: 20.0 mg/kg/injection, schedule: Q04DX003 (ip), vehicle: water",173 % of control
same,T/C,"dose: 40.0 mg/kg/injection, schedule: Q04DX003 (ip), vehicle: water",193 % of control
C[C@@H]1C[C@H](C)OC(CO)O1 (stereo partly drawn) (tested in a mixture with another compound),T/C,[1],100 % of control
same,T/C,[2],99 % of control
same,T/C,[3],97 % of control
COc1ccc(NC(CCN2CCCCC2)=NC(C)(C)C)cc1,T/C,[8],110 % of control
same,T/C,[9],104 % of control
same,T/C,[10],101 % of control
NC(=S)COc1ccccc1,T/C,[8],105 % of control
same,T/C,[9],101 % of control
same,T/C,[10],105 % of control
Cc1ccc(S(=O)(=O)NCc2cccc(CNS(=O)(=O)c3ccc(C)cc3)c2)cc1,T/C,[8],104 % of control
same,T/C,[9],89 % of control
same,T/C,[10],100 % of control
CC1(C)CC(=O)C(=N/O)/C(=N\NC(N)=S)C1,T/C,[4],102 % of control
same,T/C,[5],103 % of control
same,T/C,[6],110 % of control
ClC(Cl)C1OCCCO1,T/C,[1],100 % of control
same,T/C,[2],99 % of control
same,T/C,[3],96 % of control
Cc1ncc(CO)c2c1OC(C)(C)OC2,T/C,[4],100 % of control
same,T/C,[5],107 % of control
same,T/C,[6],100 % of control
COc1ccc(CCNC(=O)Nc2ccc(C(C)(C)C)cc2)cc1OC,T/C,[4],101 % of control
same,T/C,[5],97 % of control
same,T/C,[6],101 % of control
Fc1ccc(CSC(=S)Nc2cccc(F)c2)cc1,T/C,"dose: 50.0 mg/kg/injection, schedule: Q01DX009 (ip), vehicle: suspension in saline",90 % of control
same,T/C,"dose: 100.0 mg/kg/injection, schedule: Q01DX009 (ip), vehicle: suspension in saline",103 % of control
same,T/C,"dose: 200.0 mg/kg/injection, schedule: Q01DX009 (ip), vehicle: suspension in saline",107 % of control
COC(=O)C(C)NC(=O)C(C)NC(=O)c1cnc2ccccc2n1 (stereo not drawn),T/C,[14],97 % of control
same,T/C,[15],99 % of control
same,T/C,[16],111 % of control
COc1ccccc1-n1c(C)nc2c(cnn2CN2CCCCC2)c1=O,T/C,[11],99 % of control
same,T/C,[12],115 % of control
same,T/C,[13],101 % of control
CN(C)CCOc1ccc2c(c1)C(=O)/C(=C\c1ncc([N+](=O)[O-])n1C)C2,T/C,"dose: 12.5 mg/kg/injection, schedule: Q01DX009 (ip), vehicle: saline with Tween-80",113 % of control
same,T/C,[7],123 % of control and 94 % of control
same,T/C,[8],121 % of control
same,T/C,[9],123 % of control
O=C1C2C[C@@H]3c4ccccc4N[C@@H]3N2C(=O)C2CCCN12 (stereo partly drawn),T/C,[11],97 % of control
same,T/C,[12],102 % of control
same,T/C,[13],94 % of control
CC(NC(=O)c1cccc2c1Oc1ccccc1S2)C(=O)O (stereo not drawn),T/C,"dose: 50.0 mg/kg/injection, schedule: Q04DX002 (ip), vehicle: saline",104 % of control
same,T/C,"dose: 100.0 mg/kg/injection, schedule: Q04DX002 (ip), vehicle: saline",98 % of control
same,T/C,"dose: 200.0 mg/kg/injection, schedule: Q04DX002 (ip), vehicle: saline with Tween-80",93 % of control
same,T/C,"dose: 200.0 mg/kg/injection, schedule: Q04DX002 (ip), vehicle: saline",99 % of control
N#CC1(C#N)CC1c1ccccc1 (stereo not drawn),T/C,[14],105 % of control
same,T/C,[15],96 % of control
same,T/C,[16],96 % of control
O=C1CSC(=Nc2ccc(F)cc2F)N1Cc1cccs1,T/C,[17],102 % of control
same,T/C,[18],113 % of control
same,T/C,[19],103 % of control
CNc1ncnc2ccccc12,T/C,[7],100 % of control
same,T/C,[8],95 % of control
same,T/C,[9],89 % of control
CCCCCCCCCCCCCCCCOc1ccc(C(=O)CC(=O)OC)cc1,T/C,"dose: 50.0 mg/kg/injection, schedule: Q01DX009 (ip), vehicle: other",103 % of control
same,T/C,"dose: 100.0 mg/kg/injection, schedule: Q01DX009 (ip), vehicle: other",100 % of control
same,T/C,"dose: 200.0 mg/kg/injection, schedule: Q01DX009 (ip), vehicle: other",95 % of control
same,T/C,"dose: 400.0 mg/kg/injection, schedule: Q01DX009 (ip), vehicle: other",87 % of control
CN1c2ccccc2N=Cc2c1oc1ccc3ccccc3c1c2=O,T/C,"dose: 12.5 mg/kg/injection, schedule: Q01DX005 (ip), vehicle: Klucel (hydroxypropylcellulose) (HPC)",96 % of control
same,T/C,[20],103 % of control
same,T/C,[11],92 % of control
COc1cccc2c1C1c3ccccc3Sc3cccc(c31)O2 (stereo not drawn),T/C,[20],98 % of control
same,T/C,[11],100 % of control
same,T/C,[12],100 % of control
same,T/C,[13],99 % of control
CCCC1SCC(=O)N1c1nncs1 (stereo not drawn),T/C,"dose: 30.0 mg/kg/injection, schedule: Q01DX005 (ip), vehicle: Klucel (hydroxypropylcellulose) (HPC)",94 % of control
same,T/C,[17],104 % of control and 111 % of control
same,T/C,"dose: 100.0 mg/kg/injection, schedule: Q01DX001 (ip), vehicle: Klucel (hydroxypropylcellulose) (HPC)",96 % of control
same,T/C,[18],120 % of control
same,T/C,"dose: 200.0 mg/kg/injection, schedule: Q01DX001 (ip), vehicle: Klucel (hydroxypropylcellulose) (HPC)",103 % of control
same,T/C,[19],166 % of control
